Assay results reported in article PMC5335602, “Protein-ligand binding affinity determination by the waterLOGSY method: An optimised approach considering ligand rebinding” (Scientific Reports, 2017).

Assays:
Assay type in all cases: binding
α-chymotrypsin = target: T1, α-chymotrypsin (Bos taurus, UniProt P00766); assay: […] NMR chemical shift titration; waterLOGSY titration
T1 construct: from bovine pancreas, Type II

[1] = target: T2, human serum albumin (HSA) (Homo sapiens, UniProt P02768); assay: waterLOGSY NMR titration ([…] HSA, […] s mixing time); details: read-out: KD^obs/μM / 25 μM HSA
T2 construct: gene ALB

[2] = target: T3, bovine serum albumin (BSA) (Bos taurus, UniProt P02769); assay: waterLOGSY NMR titration ([…] BSA)
T3 construct: gene ALB
T3 sequence (P02769 25-607): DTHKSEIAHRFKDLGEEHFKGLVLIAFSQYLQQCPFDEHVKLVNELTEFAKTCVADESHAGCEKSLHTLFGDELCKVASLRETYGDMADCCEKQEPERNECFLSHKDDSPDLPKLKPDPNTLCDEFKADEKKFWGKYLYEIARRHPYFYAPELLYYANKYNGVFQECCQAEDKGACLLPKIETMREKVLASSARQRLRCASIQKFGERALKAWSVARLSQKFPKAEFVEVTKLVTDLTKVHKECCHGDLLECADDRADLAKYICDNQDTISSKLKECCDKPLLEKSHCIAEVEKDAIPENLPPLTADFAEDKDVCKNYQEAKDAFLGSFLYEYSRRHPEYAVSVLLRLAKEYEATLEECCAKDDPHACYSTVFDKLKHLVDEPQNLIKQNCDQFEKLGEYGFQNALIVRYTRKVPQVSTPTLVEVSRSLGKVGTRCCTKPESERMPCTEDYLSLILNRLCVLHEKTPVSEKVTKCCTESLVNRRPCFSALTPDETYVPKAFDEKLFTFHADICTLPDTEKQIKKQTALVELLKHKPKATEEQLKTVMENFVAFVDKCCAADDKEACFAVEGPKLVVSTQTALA

T2 sequence (P02768 25-609): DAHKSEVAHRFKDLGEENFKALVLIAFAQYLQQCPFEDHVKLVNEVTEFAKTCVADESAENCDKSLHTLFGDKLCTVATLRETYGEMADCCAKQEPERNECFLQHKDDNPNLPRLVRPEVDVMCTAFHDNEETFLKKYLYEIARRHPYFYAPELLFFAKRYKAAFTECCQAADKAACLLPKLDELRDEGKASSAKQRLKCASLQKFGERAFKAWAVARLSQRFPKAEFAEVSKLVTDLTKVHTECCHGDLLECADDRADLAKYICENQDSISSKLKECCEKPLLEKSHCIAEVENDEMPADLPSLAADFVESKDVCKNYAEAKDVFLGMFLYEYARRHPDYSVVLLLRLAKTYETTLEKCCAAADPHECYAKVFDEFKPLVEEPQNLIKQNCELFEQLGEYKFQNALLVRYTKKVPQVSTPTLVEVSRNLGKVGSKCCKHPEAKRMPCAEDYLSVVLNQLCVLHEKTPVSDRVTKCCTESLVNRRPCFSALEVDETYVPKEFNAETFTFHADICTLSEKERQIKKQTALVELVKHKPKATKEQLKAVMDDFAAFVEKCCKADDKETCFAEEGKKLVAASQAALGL

## OB(O)c1cccc(F)c1 [3-Fluorophenylboronic acid]
α-chymotrypsin
  Kd: 630 µM

## N[C@@H](Cc1c[nH]c2ccccc12)C(=O)O [L-tryptophan]
[1]
  Kd: 185 ± 50 µM
[2]
  Kd: ~120 µM
